Assay results taken from patent US20240109893A1, “PREPARATION AND APPLICATION METHOD OF HETEROCYCLIC COMPOUNDS AS KRAS INHIBITOR” (SHANGHAI KECHOW PHARMA, INC., priority 2020, published 2024).

System: H358 cells
Assay: Cell activity experiment: activity test of H358 cells (MTT, 5 days)
Format: cell-based
Details: Homo sapiens, NCI-H358, 120 h, 5 days incubation, absorbance 492 nm
Protocol: Example: Cell Activity Experiment
1. Cells: H358 purchased from Shanghai EK-Bioscience Biotechnology Co., Ltd.
2. Reagents: RPMI 1640 medium, Tryple, MTT (5 mg/mL), DMSO, and DPBS.
3. Instruments: an incubator at 37° C. and 5% CO2, a UTRAO microplate reader, a biosafety cabinet, a cell counting plate, and an Optec optical microscope.
4. Experimental consumables: 96-well plate Item No.: 3599, and 96-well round-bottomed dispensing plate.
Experimental Steps of Activity Test of H358 Cells:
1. Plating: Cells in the logarithmic growth phase were digested with Tryple and terminated with a fresh medium, and the cells were counted; and the cell concentration was adjusted to 55555 cells/mL with a fresh medium, wherein 90 μL was added to each well, and those on edges were filled with sterile DPBS.
2. The plate was incubated in the incubator at 37° C. and 5% CO2 for 24 h, so that the cells cover the bottom of the well by about 50%.
3. Drug preparation for experimental group: The drug was dissolved in DMSO to prepare a 20 mmol/L stock solution; the stock solution was further diluted with DMSO to 2 mmol/L, which was serially 3-fold diluted to form an […]-concentration gradient, resulting in a 200× serial compound solution; 10 μL of the serial compound solution was taken and added to 190 μLμL of RPMI1640 medium to obtain a 10× serial compound solution; and 10 μL of the 10× compound solution was taken and added to 90 μL 96-well cell culture plate, with three replicates per grade. The concentration gradient of the compound in the 96-well cell culture plate was […], 1.524158 nM, 4.572474 nM, 13.717420 nM, 41.152260 nM, 123.456800 nM, 370.370400 nM, 1111.111000 nM, 3333.333000 nM, and 10000.000000 nM, with 100 μL per well, and the final concentration of DMSO was 0.5%.
The control group contained the same volume of solvent as the experimental group and was diluted with a complete medium, with 100 μL per well.
4. Incubation was carried out for 5 days in an incubator with 5% CO2 at 37° C.
5. After 5 days, 10 μL of an MTT solution (5 mg/mL) was added to each well, and the culture was continued for 4 h.
6. The culture was terminated, and the culture solution was carefully sucked out of the well.
7. 150 μL of dimethyl sulfoxide (DMSO) was added to each of the null wells in the experimental group and the control group; and after shaking at a medium speed for 10 s, the crystal was fully dissolved, and the optical absorbance value thereof was measured at a wavelength of 492 nm.

Row | Structure (SMILES) | IC50 [nM]
1 | C=C(F)C(=O)N1CCN(c2nc(OC[C@@H]3CCCN3C)nc3c(F)c(-c4cccc5c4C4CC4C5)ncc23)C[C@@H]1CC#N (stereo partly drawn) [Example 55, 2-((2S)-4-(8-fluoro-2-(((S)-1-methylpyrrolidin-2-yl)methoxy)-7-(1,1a,6,6a-tetrahydrocyclopropa[a]inden-2-yl)pyridino[4,3-d]pyrimidin-4-yl)-1-(2-fluoroacryloyl)piperazin-2-yl)acetonitrile] | 160
2 | C=C(F)C(=O)N1CCN(c2nc(OC[C@@H]3CCCN3C)nc3c(F)c(-c4cccc5c4[C@H]4C[C@H]4C5)ncc23)C[C@@H]1CC#N [Example 57, 2-((S)-4-(8-fluoro-2-(((S)-1-methylpyrrolidin-2-yl)methoxy)-7-((1aS,6aS)-1,1a,6,6a-tetrahydrocyclopropa[a]inden-2-yl)pyridino[4,3-d]pyrimidin-4-yl)-1-(2-fluoroacryloyl)piperazin-2-yl)acetonitrile] | 150
3 | C=C(F)C(=O)N1CCN(c2nc(OC[C@@H]3CCCN3C)nc3c(F)c(-c4cccc5c4[C@@H]4C[C@@H]4C5)ncc23)C[C@@H]1CC#N [Example 59, 2-((S)-4-(8-fluoro-2-(((S)-1-methylpyrrolidin-2-yl)methoxy)-7-((1aR,6aR)-1,1a,6,6a-tetrahydrocyclopropa[a]inden-2-yl)pyridino[4,3-d]pyrimidin-4-yl)-1-(2-fluoroacryloyl)piperazin-2-yl)acetonitrile] | 140
4 | C=CC(=O)N1CCN(c2nc(OC[C@@H]3CCCN3C)nc3c(F)c(-c4cccc5c4CC(C)C5)ncc23)C[C@@H]1CC#N (stereo partly drawn) [Example 60, 2-((2S)-1-acryloyl-4-(8-fluoro-7-(2-methyl-2,3-dihydro-1H-inden-4-yl)-2-(((S)-1-methylpyrrolidin-2-yl)methoxy)pyridino[4,3-d]pyrimidin-4-yl)piperazin-2-yl)acetonitrile] | 70

The next molecules have a lower IC50 than those just listed; values first:

Row | IC50 [nM] | Structure (SMILES)
5 | 2.2 | C=CC(=O)N1CCN(c2nc(OC[C@@H]3CCCN3C)nc3c(F)c(-c4cccc5c4[C@H]4C[C@H]4C5)ncc23)C[C@@H]1CC#N [Example 56, 2-((S)-1-acryloyl-4-(8-fluoro-2-(((S)-1-methylpyrrolidin-2-yl)methoxy)-7-((1aS,6aS)-1,1a,6,6a-tetrahydrocyclopropa[a]inden-2-yl)pyridino[4,3-d]pyrimidin-4-yl)piperazin-2-yl)acetonitrile]
6 | 0.81 | C=CC(=O)N1CCN(c2nc(OC[C@@H]3CCCN3C)nc3c(F)c(-c4cccc5c4[C@@H]4C[C@@H]4C5)ncc23)C[C@@H]1CC#N [Example 58, 2-((S)-1-acryloyl-4-(8-fluoro-2-(((S)-1-methylpyrrolidin-2-yl)methoxy)-7-((1aR,6aR)-1,1a,6,6a-tetrahydrocyclopropa[a]inden-2-yl)pyridino[4,3-d]pyrimidin-4-yl)piperazin-2-yl)acetonitrile]
7 | 0.71 | C=CC(=O)N1CCN(c2nc(OCC34CCCN3CCC4)nc3c(F)c(-c4cccc5c4C4CC4C5)ncc23)C[C@@H]1CC#N (stereo partly drawn) [Example 61]
8 | 8 | C=C(F)C(=O)N1CCN(c2nc(OCC34CCCN3CCC4)nc3c(F)c(-c4cccc5c4C4CC4C5)ncc23)C[C@@H]1CC#N (stereo partly drawn) [Example 62, 2-((2S)-4-(8-fluoro-2-((tetrahydro-1H-pyrrolizin-7a(5H)-yl)methoxy)-7-(1,1a,6,6a-tetrahydrocyclopropa[a]inden-2-yl)pyridino[4,3-d]pyrimidin-4-yl)-1-(2-fluoroacryloyl)piperazin-2-yl)acetonitrile]
9 | 2.2 | C=CC(=O)N1CCN(c2nc(OCC34CCCN3CCC4)nc3c(F)c(-c4cccc5c4[C@H]4C[C@H]4C5)ncc23)C[C@@H]1CC#N [Example 63, 2-((S)-1-acryloyl-4-(8-fluoro-2-((tetrahydro-1H-pyrrolizin-7a(5H)-yl)methoxy)-7-((1aS,6aS)-1,1a,6,6a-tetrahydrocyclopropa[a]inden-2-yl)pyridino[4,3-d]pyrimidin-4-yl)piperazin-2-yl)acetonitrile]
